{"source": "patent US20080058211A1", "about": "“Method and Composition for the Modulation of Toxin Resistance in Plant Cells” (BOARD OF REGENTS, THE UNIVERSITY OF TEXAS SYSTEM, priority 2006, published 2008)", "key": {"[1]": {"system": "root hairs of Arabidopsis thaliana", "conditions": "cited from earlier work; for induction of membrane depolarization: applied nucleotide or phosphate"}, "[Ca^2+]cyt": {"system": "[Ca^2+]cyt", "conditions": "dextran-conjugated calcium green as reporter; cited from earlier work"}, "[2]": {"system": "ATMEKK1, ATMPK3, ATPK19, ERF2, ERF3, ERF4 and ACS6 genes", "conditions": "cited from earlier work"}, "roots": {"system": "roots", "conditions": "in vivo; cited from earlier work"}, "Arabidopsis pollen": {"system": "Arabidopsis pollen", "test": "in vitro pollen germination (Arabidopsis)", "assay_type": "cell-based, Arabidopsis thaliana", "description": "Effects of Extracellular ATPγS and AMPαS on Pollen Germination. Arabidopsis pollen was germinated in pollen germination media (PGM) containing from about zero to about 400 μM ATPγS or AMPαS. […] The method of collection included vortexing flowers in PGM creating a homogenous suspension of pollen from tens to hundreds of flowers. This method caused the release of a small amount of ATP, 2-5 μM into the PGM (data not shown).\nThe nitric oxide signaling pathway mediates the inhibition of Arabidopsis pollen germination by ATPγS. To examine the downstream effectors involved in the inhibition of Arabidopsis pollen germination by ATPγS, different agonists and antagonists of the known nitric oxide signaling pathway were examined. […] Some of the nitric oxide signaling pathway agonists are water soluble while others are DMSO soluble.\nStrains and Growth Conditions. For the experiments related to the nitric oxide-ATP signaling relationship, all Arabidopsis thaliana plants were ecotype Wassilewskija (WS), and Medicago truncatula plants were strain A17. All of the plants were grown in Metro-Mix 200 soil at 24° C. with constant light. In vitro Pollen Germination. Arabidopsis flowers in stage 12-14 (Smyth et al., 1990) or Medicago truncatula flowers in stage F3 (Firnhaber et al., 2005) were collected and vortexed for 1 min in pollen germination media (PGM) (0.01% boric acid, 1 mM MgSO4, 1 mM CaCl2, 1 mM Ca(NO3)2, 5 mM HEPES, 18% Sucrose pH 7.0). The supernatant containing the pollen was collected by pipet, and up to three rounds of vortexing of the same pollen could be pooled together. The pollen suspended in PGM was then added in 10-12 μL drops to 400 μL PGM+1% agar that had been spread as a thin film across a microscope slide. The slides and pollen were then placed into humidity chambers, petri dishes with water saturated kimwipes, and allowed to germinate at 26° C. overnight. Pictures of the germinated pollen were taken with a digital camera attached to a brightfield microscope at 40×. The digital images were scored for the percent of pollen germinated using the AlphaEase software from Alpha Innotech. Pollen with tubes that were shorter than the diameter of the pollen grain were not counted as germinated or non-germinated. The chemicals: ATPγS, AMPαS, N2, 2-O-dibutyrylguanosine 3′:5′-cyclic monophospohate (Dib cGMP), Sildenafil citrate (Viagra™, Pfizer), and 2-(N,N-Diethylamino)-diazenolate 2-oxide (NONOate) were added to the pollen/PGM suspension prior to adding the drops to the PGM+1% agar. The chemicals 1H-[1,2,4]Oxadiazolo[4,3,-a]quinoxalin-1-one (ODQ), N-[4-[1-(3-Aminopropyl)-2-hydroxy-2-nitrosohydrazino]butyl]-1,3-propanediamine (SNAP), and 3-isobutyl-1-methylxanthine (IBMX) were diluted in DMSO and added to the pollen/PGM suspension to a final concentration of DMSO of 0.1%.\nFor successful pollen germination it was critical for the plants to be healthy and growing in slightly dry soil. To achieve this, the plants were briefly watered 1-2 days before the experiment. As Johnson-Brousseau and McCormick note in their paper (Johnson-Brousseau and McCormick 2004), a solid base is necessary for best in vitro germination of Arabidopsis pollen. The pollen would not germinate in liquid PGM if not overlaid on a solid PGM+1% agar base, and the vortexing and deposition of the pollen/PGM suspension needed to take place in less than 30 minutes or germination rates dropped considerably."}, "Δ[Ca^2+]cyt": {"system": "Δ[Ca^2+]cyt", "conditions": "co-application with OGA; cited from earlier work"}, "Arabidopsis leaves": {"system": "Arabidopsis leaves", "conditions": "cited from earlier work"}, "[3]": {"system": "[Ca^2+]cyt in excised roots", "conditions": "cited from earlier work; for effect on [Ca2+]cyt: 10 mM CaCl2; for suppression of the response of roots to eATP: antagonist or channel blocker with eATP"}, "Arabidopsis pollen tubes": {"system": "Arabidopsis pollen tubes", "test": "pollen tube elongation", "assay_type": "cell-based, Arabidopsis thaliana", "description": "Arabidopsis pollen tube elongation is inhibited by ATPγS. As vesicles fuse to deliver membranes to the tip of elongating pollen tubes, ATP is likely to be released. So ATPγS and AMPαS were investigated for their ability to affect pollen tube elongation. After pollen tubes had begun to grow, from about 0 to about 250 μM ATPγS or AMPαS were added and the subsequent growth rate was determined.\nBlocking the nitric oxide signaling pathway reverses the inhibition of Arabidopsis elongation by ATPγS. The inhibition of Arabidopsis pollen tube elongation was also mediated via the NO signaling pathway. Pollen tube growth rates were measured in 0.5% DMSO with and without 100 μM ATPγS.\nMeasurements of pollen tube elongation. Pollen was germinated as described above except 10 μL drops of pollen/PGM suspension were added to 60 μL of PGM+1% agar that had been deposited into a concavity slide. The pollen was allowed to germinate for 1-2 h, so that pollen tubes were clearly visible. Then 90 μL of PGM or PGM containing ATPγS, AMPαS, DMSO or ODQ was added and a photo was taken using a brightfield microscope at 40×. The coordinates of each photo were noted, so that the exact pollen tubes could be photographed 50-60 minutes later. Using Image J, the pollen tube lengths for individual pollen tubes were measured and a growth rate of μm/min was determined."}, "[4]": {"system": "nitric oxide levels in elongating Arabidopsis pollen tubes", "test": "nitric oxide in elongating pollen tubes, DAF-2D fluorescence", "assay_type": "cell-based, Arabidopsis thaliana", "conditions": "125 μM", "description": "Increased extracellular ATPγS increases nitric oxide production in elongating pollen tubes. In addition to using agonists and antagonists to indirectly study the relationship of eATPγS and nitric oxide, direct measurements of increases in nitric oxide after application of ATPγS and AMPαS were examined. Pollen grains have a high level of auto-fluorescence and the nitric oxide levels in elongating Arabidopsis pollen tubes were determined using DAF-2D, a fluorescent marker for the presence of nitric oxide that was dissolved in DMSO. Elongating pollen tubes were treated with DAF-2D alone or with ATPγS or AMPαS.\nMeasurements of NO in growing pollen tubes treated with ATPγS or AMPαS. Pollen was germinated as described for the pollen elongation measurements. After 1-2 hours when pollen tubes were clearly visible, 90 μL of PGM containing 5 μM 4,5-diaminofluorescein diacetate (DAF-2D, Molecular Probes) with or without ATPγS or AMPαS was added. […] Using Image J, the average fluorescence for the pollen tubes on each slide and each time point were determined. Since background fluorescence for each slide varied, three areas where no pollen tubes were present were averaged and subtracted from the pollen tube averages for each slide. Pollen tubes with and without nucleotides were compared to each other at similar time points to determine if there was a difference in fluorescence."}, "[5]": {"conditions": "water-soluble agonist plus 50 μM ATPγS"}, "[6]": {"conditions": "DMSO-soluble agonist plus 50 μM ATPγS, 0.1% DMSO"}}}
{"molecule": "Nc1ncnc2c1ncn2[C@@H]1O[C@H](COP(=O)(O)OP(=O)(O)O)[C@@H](O)[C@H]1O", "note": "[ADP]", "values": [{"measurement": "induction of membrane depolarization", "setting": "[1]", "value": "induced large depolarizations"}, {"measurement": "EC50", "setting": "[1]; dose-response studies, read-out: half-maximal depolarization", "value": "~10", "unit": "µM"}, {"measurement": "change in [Ca2+]cyt", "setting": "[Ca^2+]cyt", "value": "no change"}, {"measurement": "abundance of mRNAs (MAP kinases, ERF2, ERF3, ERF4, ACS6)", "setting": "[2]; application of 500 μM", "value": "induced an increased abundance"}, {"measurement": "concentration that could inhibit the straight growth of roots", "setting": "roots", "value": 3, "unit": "mM"}]}
{"molecule": "Nc1ncnc2c1ncn2[C@@H]1O[C@H](COP(=O)(O)OP(O)(O)=S)[C@@H](O)[C@H]1O", "note": "[ADPβS]", "values": [{"measurement": "agonist of pollen responses", "setting": "Arabidopsis pollen", "value": "active agonist"}, {"measurement": "concentration that could inhibit the straight growth of roots", "setting": "roots", "value": 0.3, "unit": "mM"}, {"measurement": "effect on Δ[Ca2+]cyt together with OGA", "setting": "Δ[Ca^2+]cyt", "value": "similarly increased"}]}
{"molecule": "Nc1ncnc2c1ncn2[C@@H]1O[C@H](COP(O)(O)=S)[C@@H](O)[C@H]1O", "note": "[AMPS]", "values": [{"measurement": "effect on Δ[Ca2+]cyt together with OGA", "setting": "Δ[Ca^2+]cyt", "value": "significant inhibitory effect"}]}
{"molecule": "Nc1ncnc2c1ncn2[C@@H]1O[C@H](COP(=O)(O)O)[C@@H](O)[C@H]1O", "note": "[AMP]", "values": [{"measurement": "effect on superoxide production", "setting": "Arabidopsis leaves; equivalent concentrations delivered into the leaves", "value": "no significant effect"}, {"measurement": "induction of membrane depolarization", "setting": "[1]", "value": "did not"}, {"measurement": "effect on [Ca2+]cyt", "setting": "[3]; excised roots", "value": "Neither AMP or phosphate induced any significant change"}]}
{"molecule": "Nc1ncnc2c1ncn2[C@@H]1O[C@H](COP(O)(O)=S)[C@@H](O)[C@H]1O", "note": "[AMPαS]", "values": [{"measurement": "agonist of pollen responses", "setting": "Arabidopsis pollen", "value": "is not"}, {"measurement": "percent of germinated pollen", "setting": "Arabidopsis pollen; PGM with about zero to about 400 μM", "value": "did not significantly change"}, {"measurement": "effect on pollen tube elongation rates", "setting": "Arabidopsis pollen tubes; up to about 250 μM", "value": "no significant effect"}, {"measurement": "DAF-2D fluorescence", "setting": "[4]", "value": "did not significantly change"}]}
{"molecule": "Nc1ccn([C@@H]2O[C@H](COP(=O)(O)OP(=O)(O)OP(=O)(O)O)[C@@H](O)[C@H]2O)c(=O)n1", "note": "[CTP]", "values": [{"measurement": "induction of membrane depolarization", "setting": "[1]", "value": "did not"}]}
{"molecule": "CCCC(=O)Nc1nc2c(ncn2C2OC3COP(=O)([O-])OC3C2OC(=O)CCC)c(=O)[nH]1.[Na+]", "note": "(stereo not drawn) [DibcGMP, N2,2-O-dibutyrylguanosine 3′:5′-cyclic monophospohate]", "values": [{"measurement": "effect of added NO pathway agonist on pollen germination with ATPγS", "setting": "Arabidopsis pollen; [5]", "value": "caused 50 μM ATPγS to become inhibitory"}]}
{"molecule": "Nc1nc2c(ncn2[C@@H]2O[C@H](COP(=O)(O)OP(=O)(O)OP(=O)(O)O)[C@@H](O)[C@H]2O)c(=O)[nH]1", "note": "[GTP]", "values": [{"measurement": "induction of membrane depolarization", "setting": "[1]", "value": "induced large depolarizations"}]}
{"molecule": "CC(C)Cn1c(=O)n(C)c(=O)c2[nH]cnc21", "note": "[IBMX, 3-isobutyl-1-methylxanthine]", "values": [{"measurement": "effect of added NO pathway agonist on pollen germination with ATPγS", "setting": "Arabidopsis pollen; [6]", "value": "cause 50 μM ATPγS to inhibit pollen germination"}]}
{"molecule": "CCN(CC)[N+]([O-])=NO", "note": "[NONOate, 2-(N,N-Diethylamino)-diazenolate 2-oxide]", "values": [{"measurement": "effect of added NO pathway agonist on pollen germination with ATPγS", "setting": "Arabidopsis pollen; [5]", "value": "caused 50 μM ATPγS to become inhibitory"}]}
{"molecule": "O=c1onc2cnc3ccccc3n12", "note": "[ODQ, 1H-[1,2,4]Oxadiazolo[4,3,-a]quinoxalin-1-one]", "values": [{"measurement": "reversal of inhibition of pollen germination", "setting": "Arabidopsis pollen; 100 μM ODQ with 250 μM ATPγS", "value": "reverse the inhibition"}, {"measurement": "effect on pollen tube elongation alone", "setting": "Arabidopsis pollen tubes; 100 μM ODQ alone, 0.5% DMSO", "value": "no effect"}, {"measurement": "reversal of inhibition of pollen tube elongation", "setting": "Arabidopsis pollen tubes; 100 μM ODQ with 100 μM ATPγS, 0.5% DMSO", "value": "reversed the inhibition"}]}
{"molecule": "Cc1nc(N=Nc2ccc(S(=O)(=O)O)cc2S(=O)(=O)O)c(COP(=O)(O)O)c(C=O)c1O", "note": "[PPADS, pyridoxalphosphate-6-azophenyl-2′,4′-disulfonic acid]", "values": [{"measurement": "blocking of ATP-induced superoxide production", "setting": "Arabidopsis leaves; inhibitor treatment", "value": "block the response"}, {"measurement": "suppression of the response of roots to eATP", "setting": "[3]", "value": "completely suppressed"}]}
{"molecule": "NCCCNCCCCN(CCCN)N(O)N=O", "note": "[SNAP, N-[4-[1-(3-Aminopropyl)-2-hydroxy-2-nitrosohydrazino]butyl]-1,3-propanediamine]", "values": [{"measurement": "effect of added NO pathway agonist on pollen germination with ATPγS", "setting": "Arabidopsis pollen; [6]", "value": "cause 50 μM ATPγS to inhibit pollen germination"}]}
{"molecule": "Cc1cn([C@H]2C[C@H](O)[C@@H](COP(=O)(O)OP(=O)(O)OP(=O)(O)O)O2)c(=O)[nH]c1=O", "note": "[TTP]", "values": [{"measurement": "induction of membrane depolarization", "setting": "[1]", "value": "did not"}]}
{"molecule": "O=c1ccn([C@@H]2O[C@H](COP(=O)(O)OP(=O)(O)OP(=O)(O)O)[C@@H](O)[C@H]2O)c(=O)[nH]1", "note": "[UTP]", "values": [{"measurement": "concentrations at which ineffective on [Ca2+]cyt", "setting": "[3]; excised roots", "value": "below 100 μM"}]}
{"molecule": "[Gd]", "note": "[gadolinium]", "values": [{"measurement": "suppression of the response of roots to eATP", "setting": "[3]", "value": "completely suppressed"}, {"measurement": "blocking of nucleotide-induced gene expression changes", "setting": "[2]; cells pre-treated", "value": "partially blocked"}]}
{"molecule": "phosphate", "values": [{"measurement": "induction of membrane depolarization", "setting": "[1]", "value": "no effect"}, {"measurement": "effect on [Ca2+]cyt", "setting": "[3]; excised roots", "value": "Neither AMP or phosphate induced any significant change"}]}
